Measurements reported in ChEMBL document CHEMBL4138123, “Design, synthesis and biological evaluation of novel pyrazolochalcones as potential modulators of PI3K/Akt/mTOR pathway and inducers of apoptosis in breast cancer cells” (Eur J Med Chem, 2017).

How the values were obtained:
Format in all cases: functional
[1] = system: DU-145; test: Cytotoxicity against human DU145 cells assessed as cell growth at 10 uM after 48 hrs by sulforhodamine B assay relative to control; conditions: DU-145, 48 h, read-out: Activity
[2] = system: UACC-257; test: Cytotoxicity against human UACC257 cells assessed as cell growth at 0.1 uM after 48 hrs by sulforhodamine B assay relative to control; conditions: UACC-257, 48 h, read-out: Activity
[3] = system: COLO 205; test: Cytotoxicity against human COLO205 cells assessed as cell growth at 100 uM after 48 hrs by sulforhodamine B assay relative to control; conditions: COLO 205, 48 h, read-out: Activity
[4] = system: K562; test: Cytotoxicity against human K562 cells assessed as growth inhibition after 48 hrs by sulforhodamine B assay; conditions: K562, 48 h
[5] = system: NCI-H460; test: Cytotoxicity against human NCI-H460 cells assessed as growth inhibition after 48 hrs by sulforhodamine B assay; conditions: NCI-H460, 48 h
[6] = system: SW-620; test: Cytotoxicity against human SW620 cells assessed as cell growth at 1 uM after 48 hrs by sulforhodamine B assay relative to control; conditions: SW-620, 48 h, read-out: Activity
[7] = system: HCT-116; test: Cytotoxicity against human HCT116 cells assessed as cell growth at 1 uM after 48 hrs by sulforhodamine B assay relative to control; conditions: HCT-116, 48 h, read-out: Activity
[8] = system: HL-60(TB); test: Cytotoxicity against human HL-60(TB) cells assessed as cell growth at 10 uM after 48 hrs by sulforhodamine B assay relative to control; conditions: HL-60, 48 h, read-out: Activity
[9] = system: SF-268; test: Cytotoxicity against human SF268 cells assessed as growth inhibition after 48 hrs by sulforhodamine B assay; conditions: SF-268, 48 h; for CC50: read-out: LC50 (the source's name)
[10] = system: MOLT-4; test: Cytotoxicity against human MOLT4 cells assessed as cell growth at 0.01 uM after 48 hrs by sulforhodamine B assay relative to control; conditions: MOLT-4, 48 h, read-out: Activity
[11] = system: CCRF-CEM; test: Cytotoxicity against human CCRF-CEM cells assessed as growth inhibition after 48 hrs by sulforhodamine B assay
[12] = system: SR; test: Cytotoxicity against human SR cells assessed as growth inhibition after 48 hrs by sulforhodamine B assay; conditions: for CC50: read-out: LC50 (the source's name)
[13] = system: HT-29; test: Cytotoxicity against human HT-29 cells assessed as cell growth at 0.01 uM after 48 hrs by sulforhodamine B assay relative to control; conditions: HT-29, 48 h, read-out: Activity
[14] = system: NCI-H322M; test: Cytotoxicity against human NCI-H322M cells assessed as cell growth at 1 uM after 48 hrs by sulforhodamine B assay relative to control; conditions: read-out: Activity
[15] = system: T47D; test: Cytotoxicity against human T47D cells assessed as cell growth at 0.01 uM after 48 hrs by sulforhodamine B assay relative to control; conditions: read-out: Activity
[16] = system: OVCAR-5; test: Cytotoxicity against human OVCAR5 cells assessed as cell growth at 0.01 uM after 48 hrs by sulforhodamine B assay relative to control; conditions: OVCAR-5, 48 h, read-out: Activity
[17] = system: DU-145; test: Cytotoxicity against human DU145 cells assessed as cell growth at 0.1 uM after 48 hrs by sulforhodamine B assay relative to control; conditions: DU-145, 48 h, read-out: Activity
[18] = system: RPMI-8226; test: Cytotoxicity against human RPMI8226 cells assessed as cell growth at 10 uM after 48 hrs by sulforhodamine B assay relative to control; conditions: RPMI-8226, 48 h, read-out: Activity
[19] = system: OVCAR-5; test: Cytotoxicity against human OVCAR5 cells assessed as growth inhibition after 48 hrs by sulforhodamine B assay; conditions: OVCAR-5, 48 h
[20] = system: RPMI-8226; test: Cytotoxicity against human RPMI8226 cells assessed as growth inhibition after 48 hrs by sulforhodamine B assay; conditions: RPMI-8226, 48 h
[21] = system: 786-0; test: Cytotoxicity against human 786-0 cells assessed as cell growth at 0.1 uM after 48 hrs by sulforhodamine B assay relative to control; conditions: 786-0, 48 h, read-out: Activity
[22] = system: Hs-578T; test: Cytotoxicity against human Hs 578T cells assessed as cell growth at 1 uM after 48 hrs by sulforhodamine B assay relative to control; conditions: read-out: Activity
[23] = system: M14; test: Cytotoxicity against human M14 cells assessed as growth inhibition after 48 hrs by sulforhodamine B assay; conditions: M14, 48 h
[24] = system: HOP-62; test: Cytotoxicity against human HOP62 cells assessed as cell growth at 1 uM after 48 hrs by sulforhodamine B assay relative to control; conditions: HOP-62, 48 h, read-out: Activity
[25] = system: ACHN; test: Cytotoxicity against human ACHN cells assessed as cell growth at 10 uM after 48 hrs by sulforhodamine B assay relative to control; conditions: read-out: Activity
[26] = system: RPMI-8226; test: Cytotoxicity against human RPMI8226 cells assessed as cell growth at 1 uM after 48 hrs by sulforhodamine B assay relative to control; conditions: RPMI-8226, 48 h, read-out: Activity
[27] = system: HL-60(TB); test: Cytotoxicity against human HL-60(TB) cells assessed as cell growth at 1 uM after 48 hrs by sulforhodamine B assay relative to control; conditions: HL-60, 48 h, read-out: Activity
[28] = system: HCC 2998; test: Cytotoxicity against human HCC2998 cells assessed as cell growth at 0.1 uM after 48 hrs by sulforhodamine B assay relative to control; conditions: HCC 2998, 48 h, read-out: Activity
[29] = system: T47D; test: Cytotoxicity against human T47D cells assessed as cell growth at 0.1 uM after 48 hrs by sulforhodamine B assay relative to control; conditions: read-out: Activity
[30] = system: HCT-116; test: Cytotoxicity against human HCT116 cells assessed as growth inhibition after 48 hrs by sulforhodamine B assay; conditions: HCT-116, 48 h
[31] = system: NCI-H23; test: Cytotoxicity against human NCI-H23 cells assessed as growth inhibition after 48 hrs by sulforhodamine B assay; conditions: NCI-H23, 48 h; for CC50: read-out: LC50 (the source's name)
[32] = system: PC-3; test: Cytotoxicity against human PC3 cells assessed as cell growth at 0.1 uM after 48 hrs by sulforhodamine B assay relative to control; conditions: PC-3, 48 h, read-out: Activity
[33] = system: COLO 205; test: Cytotoxicity against human COLO205 cells assessed as cell growth at 0.01 uM after 48 hrs by sulforhodamine B assay relative to control; conditions: COLO 205, 48 h, read-out: Activity
[34] = system: SK-MEL-5; test: Cytotoxicity against human SK-MEL-5 cells assessed as growth inhibition after 48 hrs by sulforhodamine B assay; conditions: SK-MEL-5, 48 h
[35] = system: OVCAR-3; test: Cytotoxicity against human OVCAR3 cells assessed as cell growth at 0.1 uM after 48 hrs by sulforhodamine B assay relative to control; conditions: OVCAR-3, 48 h, read-out: Activity
[36] = system: OVCAR-4; test: Cytotoxicity against human OVCAR4 cells assessed as cell growth at 100 uM after 48 hrs by sulforhodamine B assay relative to control; conditions: OVCAR-4, 48 h, read-out: Activity

COc1ccc(C(=O)/C=C/c2cc(-c3cc(OC)c(OC)c(OC)c3)n[nH]2)cc1
growth at 10 µM [1]: -93%
growth at 0.1 µM [2]: 97%
growth at 100 µM [3]: -81%
LC50 (concentration killing 50% of cells) [4]: > 100 µM
LC50 [5]: 8.18 µM
TGI [5]: 3.75 µM
growth at 1 µM [6]: 82%
growth at 1 µM [7]: 72%
growth at 10 µM [8]: -47%
TGI [9]: 5.12 µM
CC50 [9]: > 100 µM
growth at 0.01 µM [10]: 103%
LC50 (concentration killing 50% of cells) [11]: > 100 µM
TGI [11]: 5.85 µM
TGI [12]: 23.9 µM
CC50 [12]: > 100 µM
growth at 0.01 µM [13]: 102%
growth at 1 µM [14]: 93%
growth at 0.01 µM [15]: 96%
growth at 0.01 µM [16]: 99%
growth at 0.1 µM [17]: 101%
growth at 10 µM [18]: -41%
LC50 [19]: 7.6 µM
TGI [19]: 3.78 µM
LC50 [20]: > 100 µM
TGI [20]: 2.49 µM
growth at 0.1 µM [21]: 96%
growth at 1 µM [22]: 96%
LC50 (concentration killing 50% of cells) [23]: > 100 µM
TGI [23]: 4.93 µM
growth at 1 µM [24]: 87%
growth at 10 µM [25]: -83%
growth at 1 µM [26]: 27%
growth at 1 µM [27]: 99%
growth at 0.1 µM [28]: 97%
growth at 0.1 µM [29]: 93%
LC50 [30]: > 100 µM
TGI [30]: 5.86 µM
TGI [31]: 12.2 µM
CC50 [31]: > 100 µM
growth at 0.1 µM [32]: 95%
growth at 0.01 µM [33]: 103%
LC50 (concentration killing 50% of cells) [34]: 6.1 µM
TGI [34]: 3.24 µM
growth at 0.1 µM [35]: 101%
growth at 100 µM [36]: -15%

COc1ccc(-c2cc(/C=C/C(=O)c3ccc(OC)c(OC)c3)[nH]n2)cc1
growth at 10 µM [1]: -91%
growth at 0.1 µM [2]: 86%
growth at 100 µM [3]: -77%
GI50 [4]: 1.28 µM
LC50 (concentration killing 50% of cells) [4]: > 100 µM
TGI [4]: 10.7 µM
GI50 [5]: 1.64 µM
LC50 [5]: 22.8 µM
TGI [5]: 4.34 µM
growth at 1 µM [6]: 65%
growth at 1 µM [7]: 51%
growth at 10 µM [8]: -21%
GI50 [9]: 1.94 µM
TGI [9]: 4.82 µM
CC50 [9]: 27.3 µM
growth at 0.01 µM [10]: 105%
GI50 [11]: 1.34 µM
LC50 (concentration killing 50% of cells) [11]: > 100 µM
TGI [11]: 4.14 µM
GI50 [12]: 0.67 µM
TGI [12]: 3.74 µM
CC50 [12]: > 100 µM
growth at 0.01 µM [13]: 101%
growth at 1 µM [14]: 72%
growth at 0.01 µM [15]: 95%
growth at 0.01 µM [16]: 93%
growth at 0.1 µM [17]: 109%
growth at 10 µM [18]: -56%
GI50 [19]: 1.65 µM
LC50 [19]: 10.6 µM
TGI [19]: 4.09 µM
GI50 [20]: 0.32 µM
LC50 [20]: 8.16 µM
TGI [20]: 1.33 µM
growth at 0.1 µM [21]: 102%
growth at 1 µM [22]: 81%
GI50 [23]: 2.17 µM
LC50 (concentration killing 50% of cells) [23]: 13.8 µM
TGI [23]: 4.97 µM
growth at 1 µM [24]: 94%
growth at 10 µM [25]: -58%
growth at 1 µM [26]: 8%
growth at 1 µM [27]: 86%
growth at 0.1 µM [28]: 105%
growth at 0.1 µM [29]: 92%
GI50 [30]: 1.01 µM
LC50 [30]: 6.08 µM
TGI [30]: 2.48 µM
GI50 [31]: 2.47 µM
TGI [31]: 6.33 µM
CC50 [31]: 34.1 µM
growth at 0.1 µM [32]: 91%
growth at 0.01 µM [33]: 103%
GI50 [34]: 1.77 µM
LC50 (concentration killing 50% of cells) [34]: 7.83 µM
TGI [34]: 3.72 µM
growth at 0.1 µM [35]: 104%
growth at 100 µM [36]: -77%
